Legend:
Assay type in all cases: in vivo
[1] = system: velvetleaf (Abutilon theophrasti); test: Test A preemergence, velvetleaf; conditions: 0 to 100 scale (0 no effect, 100 complete control)
Summary of the method: (§1)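 Ratings of 0–100 (0 no effect, 100 complete control) came from visual comparison with untreated controls after roughly ten days in a greenhouse. Plants in loam soil–sand blend were treated with compound in non-phytotoxic solvent plus surfactant, pre- or postemergence (one- to two-leaf stage).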

[2] = system: wheat (Triticum aestivum); test: Test A preemergence, wheat; conditions: 0 to 100 scale (0 no effect, 100 complete control)
Summary of the method: as §1

[3] = system: large crabgrass (Digitaria sanguinalis); test: Test A postemergence, large crabgrass; conditions: 0 to 100 scale (0 no effect, 100 complete control)
Summary of the method: as §1

[4] = system: pigweed (Amaranthus retroflexus); test: Test A postemergence, pigweed; conditions: 0 to 100 scale (0 no effect, 100 complete control)
Summary of the method: as §1

[5] = system: morningglory (Ipomoea spp.); test: Test A postemergence, morningglory; conditions: 0 to 100 scale (0 no effect, 100 complete control)
Summary of the method: as §1

[6] = system: pigweed (Amaranthus retroflexus); test: Test A preemergence, pigweed; conditions: 0 to 100 scale (0 no effect, 100 complete control)
Summary of the method: as §1

[7] = system: wheat (Triticum aestivum); test: Test A postemergence, wheat; conditions: 0 to 100 scale (0 no effect, 100 complete control)
Summary of the method: as §1

[8] = system: morningglory (Ipomoea spp.); test: Test A preemergence, morningglory; conditions: 0 to 100 scale (0 no effect, 100 complete control)
Summary of the method: as §1

[9] = system: rice (Oryza sativa); test: Test B flooded paddy test, rice; conditions: Flood, scale 0 to 100
Summary of the method: (§2)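 2-leaf plants; pots flooded 3 cm above soil; compound added to paddy water; depth maintained. Greenhouse 13–15 d. Visual rating vs controls, 0 (no effect) to 100 (complete control); dash = no result.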

[10] = system: corn (Zea mays); test: Test A postemergence, corn; conditions: 0 to 100 scale (0 no effect, 100 complete control)
Summary of the method: as §1

[11] = system: large crabgrass (Digitaria sanguinalis); test: Test A preemergence, large crabgrass; conditions: 0 to 100 scale (0 no effect, 100 complete control)
Summary of the method: as §1

[12] = system: umbrella sedge (Cyperus difformis); test: Test B flooded paddy test, umbrella sedge; conditions: Flood, scale 0 to 100
Summary of the method: as §2

[13] = system: barnyardgrass (Echinochloa crus-galli); test: Test A postemergence, barnyardgrass; conditions: 0 to 100 scale (0 no effect, 100 complete control)
Summary of the method: as §1

[14] = system: barnyardgrass (Echinochloa crus-galli); test: Test A preemergence, barnyardgrass; conditions: 0 to 100 scale (0 no effect, 100 complete control)
Summary of the method: as §1

[15] = system: ducksalad (Heteranthera limosa); test: Test B flooded paddy test, ducksalad; conditions: Flood, scale 0 to 100
Summary of the method: as §2

[16] = system: giant foxtail (Setaria faberi); test: Test A preemergence, giant foxtail; conditions: 0 to 100 scale (0 no effect, 100 complete control)
Summary of the method: as §1

[17] = system: barnyardgrass (Echinochloa crus-galli); test: Test B flooded paddy test, barnyardgrass; conditions: Flood
Summary of the method: as §2

[18] = system: giant foxtail (Setaria faberi); test: Test A postemergence, giant foxtail; conditions: 0 to 100 scale (0 no effect, 100 complete control)
Summary of the method: as §1

[19] = system: corn (Zea mays); test: Test A preemergence, corn; conditions: 0 to 100 scale (0 no effect, 100 complete control)
Summary of the method: as §1

[20] = system: velvetleaf (Abutilon theophrasti); test: Test A postemergence, velvetleaf; conditions: 0 to 100 scale (0 no effect, 100 complete control)
Summary of the method: as §1

[21] = 250 g ai/ha, scale 0 to 100 (0 no effect, 100 complete control)

For `CCn1c(=O)c(C[S+]([O-])C2=NOC(C)(C)C2)nc2cccnc21` (stereo not drawn) [Compound 38], the “Plant response rating, Velvetleaf” value ([1]; 125 g ai/ha) was 0, the “Plant response rating, Velvetleaf” value ([1]; 500 g ai/ha) was 0 and the “Plant response rating, Wheat” value ([2]; 125 g ai/ha) was 0. The “Plant response rating, Wheat” value ([2]; 500 g ai/ha) was 0, the “Plant response rating, Crabgrass, Large” value ([3]; 125 g ai/ha) was 0 and the “Plant response rating, Crabgrass, Large” value ([3]; 500 g ai/ha) was 20. For the same compound, the “Plant response rating, Pigweed” value ([4]; 125 g ai/ha) was 0, the “Plant response rating, Pigweed” value ([4]; 500 g ai/ha) was 0 and the “Plant response rating, Morningglory” value ([5]; 125 g ai/ha) was 0. For the same compound, the “Plant response rating, Morningglory” value ([5]; 500 g ai/ha) was 10, the “Plant response rating, Pigweed” value ([6]; 125 g ai/ha) was 0 and the “Plant response rating, Pigweed” value ([6]; 500 g ai/ha) was 0. For the same compound, the “Plant response rating, Wheat” value ([7]; 125 g ai/ha) was 0, the “Plant response rating, Wheat” value ([7]; 500 g ai/ha) was 10 and the “Plant response rating, Morningglory” value ([8]; 125 g ai/ha) was 0. The “Plant response rating, Morningglory” value ([8]; 500 g ai/ha) was 0, the “Plant response rating, Rice” value ([9]; 31 g ai/ha) was 0 and the “Plant response rating, Rice” value ([9]; 62 g ai/ha) was 0. For the same compound, the “Plant response rating, Rice” value ([9]; 125 g ai/ha) was 0, the “Plant response rating, Rice” value ([9]; 250 g ai/ha) was 0 and the “Plant response rating, Corn” value ([10]; 125 g ai/ha) was 0. The “Plant response rating, Corn” value ([10]; 500 g ai/ha) was 0, the “Plant response rating, Crabgrass, Large” value ([11]; 125 g ai/ha) was 0 and the “Plant response rating, Crabgrass, Large” value ([11]; 500 g ai/ha) was 0. For the same compound, the “Plant response rating, Sedge, Umbrella” value ([12]; 31 g ai/ha) was 0, the “Plant response rating, Sedge, Umbrella” value ([12]; 62 g ai/ha) was 0 and the “Plant response rating, Sedge, Umbrella” value ([12]; 125 g ai/ha) was 0. The “Plant response rating, Sedge, Umbrella” value ([12]; 250 g ai/ha) was 0, the “Plant response rating, Barnyardgrass” value ([13]; 125 g ai/ha) was 20 and the “Plant response rating, Barnyardgrass” value ([13]; 500 g ai/ha) was 30. The “Plant response rating, Barnyardgrass” value ([14]; 125 g ai/ha) was 0, the “Plant response rating, Barnyardgrass” value ([14]; 500 g ai/ha) was 0 and the “Plant response rating, Ducksalad” value ([15]; 31 g ai/ha) was 0. The “Plant response rating, Ducksalad” value ([15]; 62 g ai/ha) was 0, the “Plant response rating, Ducksalad” value ([15]; 125 g ai/ha) was 0 and the “Plant response rating, Ducksalad” value ([15]; 250 g ai/ha) was 0. For the same compound, the “Plant response rating, Foxtail, Giant” value ([16]; 125 g ai/ha) was 0, the “Plant response rating, Foxtail, Giant” value ([16]; 500 g ai/ha) was 0 and the “Plant response rating, Barnyardgrass” value ([17]; 31 g ai/ha, scale 0 to 100) was 0. For the same compound, the “Plant response rating, Barnyardgrass” value ([17]; 62 g ai/ha, scale 0 to 100) was 0, the “Plant response rating, Barnyardgrass” value ([17]; 125 g ai/ha, scale 0 to 100) was 0 and the “Plant response rating, Barnyardgrass” value [17, 21] was 0. The “Plant response rating, Foxtail, Giant” value ([18]; 125 g ai/ha) was 0, the “Plant response rating, Foxtail, Giant” value ([18]; 500 g ai/ha) was 0 and the “Plant response rating, Corn” value ([19]; 125 g ai/ha) was 0. For the same compound, the “Plant response rating, Corn” value ([19]; 500 g ai/ha) was 0, the “Plant response rating, Velvetleaf” value ([20]; 125 g ai/ha) was 0 and the “Plant response rating, Velvetleaf” value ([20]; 500 g ai/ha) was 30.
With `CC1(C)CC([S+]([O-])Cc2c(C(F)(F)C(F)(F)F)nc3n(c2=O)CCCS3)=NO1` (stereo not drawn) [Compound 40] the “Plant response rating, Velvetleaf” value ([1]; 125 g ai/ha) was 0, the “Plant response rating, Velvetleaf” value ([1]; 500 g ai/ha) was 0 and the “Plant response rating, Wheat” value ([2]; 125 g ai/ha) was 0. The “Plant response rating, Wheat” value ([2]; 500 g ai/ha) was 0, the “Plant response rating, Crabgrass, Large” value ([3]; 125 g ai/ha) was 0 and the “Plant response rating, Crabgrass, Large” value ([3]; 500 g ai/ha) was 40. For the same compound, the “Plant response rating, Pigweed” value ([4]; 125 g ai/ha) was 0, the “Plant response rating, Pigweed” value ([4]; 500 g ai/ha) was 0 and the “Plant response rating, Morningglory” value ([5]; 125 g ai/ha) was 0. For the same compound, the “Plant response rating, Morningglory” value ([5]; 500 g ai/ha) was 10, the “Plant response rating, Pigweed” value ([6]; 125 g ai/ha) was 0 and the “Plant response rating, Pigweed” value ([6]; 500 g ai/ha) was 0. The “Plant response rating, Wheat” value ([7]; 125 g ai/ha) was 0, the “Plant response rating, Wheat” value ([7]; 500 g ai/ha) was 50 and the “Plant response rating, Morningglory” value ([8]; 125 g ai/ha) was 0. The “Plant response rating, Morningglory” value ([8]; 500 g ai/ha) was 0, the “Plant response rating, Rice” value ([9]; 31 g ai/ha) was 0 and the “Plant response rating, Rice” value ([9]; 62 g ai/ha) was 0. For the same compound, the “Plant response rating, Rice” value ([9]; 125 g ai/ha) was 0, the “Plant response rating, Rice” value ([9]; 250 g ai/ha) was 0 and the “Plant response rating, Corn” value ([10]; 125 g ai/ha) was 0. The “Plant response rating, Corn” value ([10]; 500 g ai/ha) was 20, the “Plant response rating, Crabgrass, Large” value ([11]; 125 g ai/ha) was 0 and the “Plant response rating, Crabgrass, Large” value ([11]; 500 g ai/ha) was 70. For the same compound, the “Plant response rating, Sedge, Umbrella” value ([12]; 31 g ai/ha) was 0, the “Plant response rating, Sedge, Umbrella” value ([12]; 62 g ai/ha) was 0 and the “Plant response rating, Sedge, Umbrella” value ([12]; 125 g ai/ha) was 0. For the same compound, the “Plant response rating, Sedge, Umbrella” value ([12]; 250 g ai/ha) was 0, the “Plant response rating, Barnyardgrass” value ([13]; 125 g ai/ha) was 10 and the “Plant response rating, Barnyardgrass” value ([13]; 500 g ai/ha) was 70. The “Plant response rating, Barnyardgrass” value ([14]; 125 g ai/ha) was 0, the “Plant response rating, Barnyardgrass” value ([14]; 500 g ai/ha) was 60 and the “Plant response rating, Ducksalad” value ([15]; 31 g ai/ha) was 0. For the same compound, the “Plant response rating, Ducksalad” value ([15]; 62 g ai/ha) was 0, the “Plant response rating, Ducksalad” value ([15]; 125 g ai/ha) was 0 and the “Plant response rating, Ducksalad” value ([15]; 250 g ai/ha) was 0. The “Plant response rating, Foxtail, Giant” value ([16]; 125 g ai/ha) was 0, the “Plant response rating, Foxtail, Giant” value ([16]; 500 g ai/ha) was 80 and the “Plant response rating, Barnyardgrass” value ([17]; 31 g ai/ha, scale 0 to 100) was 0. The “Plant response rating, Barnyardgrass” value ([17]; 62 g ai/ha, scale 0 to 100) was 0, the “Plant response rating, Barnyardgrass” value ([17]; 125 g ai/ha, scale 0 to 100) was 0 and the “Plant response rating, Barnyardgrass” value [17, 21] was 0. The “Plant response rating, Foxtail, Giant” value ([18]; 125 g ai/ha) was 0, the “Plant response rating, Foxtail, Giant” value ([18]; 500 g ai/ha) was 50 and the “Plant response rating, Corn” value ([19]; 125 g ai/ha) was 0. For the same compound, the “Plant response rating, Corn” value ([19]; 500 g ai/ha) was 0, the “Plant response rating, Velvetleaf” value ([20]; 125 g ai/ha) was 0 and the “Plant response rating, Velvetleaf” value ([20]; 500 g ai/ha) was 0.

— patent US20100099561A1, “HETEROBICYCLIC ALKYLTHIO-BRIDGED ISOXAZOLINES” (E.I. DU PONT DE NEMOURS AND COMPANY, priority 2008, published 2010)
